Broadly, the IC50 is the concentration that inhibits the measured activity by half.

This passage reports IC50 results from US20240352000A1, “NOVEL PYRIMIDINE-2,4-DIAMINE DERIVATIVES, PREPARATION METHOD THEREFOR, AND PHARMACEUTICAL COMPOSITION CONTAINING SAME AS ACTIVE INGREDIENT FOR PREVENTION OR TREATMENT OF CANCER” (KOREA RESEARCH INSTITUTE OF CHEMICAL TECHNOLOGY, priority 2021, published 2024).

Assay [1] relates to Ba/F3 EGFR del19. As to the kind of experiment: CellTiter-Glo cell viability, Ba/F3 EGFR del19. The assay is classed as cell-based. To be noted: 72 hours. On the procedure:
(§1) An experiment to measure the activity of the compounds of the present invention against the mutant Ba/F3 EGFR cell line was performed as follows using the CellTiter-Glo system sold by Promega. The CellTiter-Glo assay is a method to confirm the cell viability by measuring ATP present in cells in cell culture. For the Ba/F3 EGFR del19, Ba/F3 EGFR del19/T790M, Ba/F3 del19/T790M/C797S mutant cell line, a cell line provided by Crown Bioscience was purchased and used. The Ba/F3 EGFR del19, Ba/F3 EGFR del19/T790M, Ba/F3 del19/T790M/C797S mutant cell line was cultured in RPMI containing 10% FBS and 1% penicillin-streptomycin with 1 μg of puromycin in an incubator at 37° C. and 5% CO2.
(§2) Analysis of the inhibitory ability effect of the compounds against EGFR was conducted according to the following analysis reaction recipe.
(§3) 2500 cells/90 μL were passaged and cultured in a 96-well cell culture plate, and after 24 hours, treated with the compound represented by Formula 1 at a concentration of 0, 0.01, 0.03, 0.1, 0.3, 1, 3, and 10 (μM). After reaction for 72 hours, the plate treated with the compound was left at room temperature for 30 minutes, then further treated with 100 μl of reagent, and shaken at room temperature for 10 minutes. Finally, the ratio of fluorescence values at 570 nm was obtained using the equipment to quantitatively measure and confirmed the inhibitory ability of the compounds. The measurement values measured at eight compound concentrations were analyzed using the Prism program (version 5.01, Graphpad Software, Inc.), and the IC50 value, which is an indicator of the inhibitory ability of the compound, was calculated.
Background: ATP-based viability assays read luminescence as a measure of living cells.

In assay [2] the target is EGFR del19/T790M (Homo sapiens (Human), UniProt P00533, DEL746-750/T790M). As to the kind of experiment: HTRF enzyme assay, EGFR del19/T790M mutant enzyme. The class given is biochemical. To be noted: recombinant enzyme, 37° C. 2 hours. On the procedure: (§4) An experiment to measure the activity of the compounds of the present invention against EGFR mutant enzymes was performed as follows using the HTRF system sold by Cisbio. For the EGFR del19/T790M mutant enzyme, a recombinant protein provided by Carna Biosciences was purchased and used, and for the EGFR del19/T790M/C797S mutant enzyme, a protein provided by SignalChem was purchased and used as an enzyme source.
Chain of EGFR del19/T790M (P00533 other isoform, or with tags, fused parts or gaps T790M/del 1-668/del 746-750 limits assumed): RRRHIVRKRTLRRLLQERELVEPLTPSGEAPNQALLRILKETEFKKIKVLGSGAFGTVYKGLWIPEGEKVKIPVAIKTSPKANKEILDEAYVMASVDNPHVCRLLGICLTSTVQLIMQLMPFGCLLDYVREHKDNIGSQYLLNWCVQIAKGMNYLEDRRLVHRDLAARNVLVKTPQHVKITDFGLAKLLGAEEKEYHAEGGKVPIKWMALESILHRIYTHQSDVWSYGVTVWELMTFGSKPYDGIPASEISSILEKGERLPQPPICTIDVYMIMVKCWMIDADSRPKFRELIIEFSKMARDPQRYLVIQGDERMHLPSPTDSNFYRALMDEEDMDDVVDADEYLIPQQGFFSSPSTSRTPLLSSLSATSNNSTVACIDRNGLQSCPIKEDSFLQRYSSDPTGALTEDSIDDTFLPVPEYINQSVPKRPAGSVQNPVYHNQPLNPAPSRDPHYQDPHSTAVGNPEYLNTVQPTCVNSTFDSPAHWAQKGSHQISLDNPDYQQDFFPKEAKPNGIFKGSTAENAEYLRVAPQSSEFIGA
(§5) The composition of the assay buffer used for measuring the activity was 50 mM Tris-HCl pH 7.5, 100 mM NaCl, 7.5 mM MgCl2, 3 mM KCl, 0.01% Tween 20, 0.1% BSA, and 1 mM DTT. Here, an enzyme reaction was performed using ATP at a concentration of […] and a peptide substrate labeled with biotin at a concentration of […]. Analysis of the inhibitory effect of the compounds against the EGFR activity was conducted according to the following analysis reaction recipe. • Component 1: 4 μL of an EGFR mutant enzyme • Component 2: 2 μL of a compound solution • Component 3: 4 μL of ATP and a peptide labeled with biotin
(§6) The enzyme reaction was started by first mixing Component 1 and Component 2 and then adding Component 3. After reaction at 37° C. for 2 hours, […] of measurement solution consisting of streptavidin-XL665 and europium-labeled anti-phosphotyrosine antibody provided by Cisbio was added to the enzyme reaction solution and reacted at room temperature for 1 hour. Finally, the ratio of fluorescence values at 615 nm and 665 nm was obtained using the Envision equipment from Perkin-Elmer to quantitatively measure the enzyme activity and confirmed the inhibitory ability of the compounds. The measurement values measured at seven compound concentrations were analyzed using the Prism program (version 5.01, Graphpad Software, Inc.), and the IC50 value, which is an indicator of the inhibitory ability of the compound, was calculated.
A general note: Time-resolved FRET reads energy transfer from a long-lived donor to a nearby acceptor.

Assay [3] relates to Ba/F3 EGFR L858R. Kind of assay: CellTiter-Glo cell viability, Ba/F3 EGFR L858R. The assay is classed as cell-based. The following applies: 72 hours. The procedure:
(§7) An experiment to measure the activity of the compounds of the present invention against the mutant Ba/F3 EGFR cell line was performed as follows using the CellTiter-Glo system sold by Promega. The CellTiter-Glo assay is a method to confirm the cell viability by measuring ATP present in cells in cell culture. The Ba/F3 EGFR L858R, Ba/F3 EGFR L858R/T790M, Ba/F3 EGFR L858R/T790M/C797S mutant cell line was used. The Ba/F3 EGFR L858R, Ba/F3 EGFR L858R/T790M, and Ba/F3 EGFR L858R/T790M/C797S mutant cell lines was cultured in RPMI containing 10% FBS and 1% penicillin-streptomycin with 1 μg of puromycin in an incubator at 37° C. and 5% CO2.
as §2
as §3, with “μl” for “μL”

In assay [4] the test system is Ba/F3 EGFR L858R/T790M/C797S. Kind of assay: CellTiter-Glo cell viability, Ba/F3 EGFR L858R/T790M/C797S. The assay is classed as cell-based. The following applies: 72 hours. The procedure: as §7, §2
as §3, with “μl” for “μL”

In assay [5] the test system is Ba/F3 EGFR L858R/T790M. Kind of assay: CellTiter-Glo cell viability, Ba/F3 EGFR L858R/T790M. The class given is cell-based. To be noted: 72 hours. The procedure:
as §7, §2
as §3, with “μl” for “μL”

The target in assay [6] is EGFR del19/T790M/C797S (Homo sapiens (Human), UniProt P00533, C797S/DEL746-750/T790M). As to the kind of experiment: HTRF enzyme assay, EGFR del19/T790M/C797S mutant enzyme. The class given is biochemical. To be noted: enzyme from SignalChem, 37° C. 2 hours. The procedure:
as §4, §5, §6

Assay [7] has as its system Ba/F3 EGFR del19/T790M/C797S. Kind of assay: CellTiter-Glo cell viability, Ba/F3 EGFR del19/T790M/C797S. The assay is classed as cell-based. To be noted: 72 hours. The procedure: as §1, §2, §3
Assay [8] relates to Ba/F3 EGFR del19/T790M. As to the kind of experiment: CellTiter-Glo cell viability, Ba/F3 EGFR del19/T790M. The class given is cell-based. The following applies: 72 hours. On the procedure: as §1, §2, §3

Chain of EGFR del19/T790M/C797S (P00533 other isoform, or with tags, fused parts or gaps T790M/C797S/del 1-694/del 746-750 limits assumed): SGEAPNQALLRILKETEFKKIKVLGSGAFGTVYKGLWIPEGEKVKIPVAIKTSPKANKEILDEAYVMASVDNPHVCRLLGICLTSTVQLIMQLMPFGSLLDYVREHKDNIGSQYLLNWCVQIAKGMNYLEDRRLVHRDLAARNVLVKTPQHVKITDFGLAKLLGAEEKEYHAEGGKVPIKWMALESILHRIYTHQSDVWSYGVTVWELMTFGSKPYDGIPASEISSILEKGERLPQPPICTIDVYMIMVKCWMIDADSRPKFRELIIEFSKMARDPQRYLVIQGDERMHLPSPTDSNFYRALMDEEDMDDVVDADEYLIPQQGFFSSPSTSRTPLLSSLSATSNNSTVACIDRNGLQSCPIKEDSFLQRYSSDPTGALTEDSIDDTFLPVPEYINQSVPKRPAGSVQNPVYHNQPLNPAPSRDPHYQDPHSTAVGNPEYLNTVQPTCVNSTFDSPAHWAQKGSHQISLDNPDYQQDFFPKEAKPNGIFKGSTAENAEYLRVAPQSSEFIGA

In the case of `COc1cc(N2CCC(N3CCN(C)CC3)CC2)ccc1Nc1ncc(C(=O)OC(C)C)c(Nc2cccc3c2N(S(C)(=O)=O)CC3)n1` [Example 10, isopropyl 2-((2-methoxy-4-(4-(4-methylpiperazin-1-yl)piperidin-1-yl)phenyl)amino)-4-((1-(methylsulfonyl)indolin-7-yl)amino)pyrimidine-5-carboxylate], the concentration for half-maximal inhibition (IC50) was greater than 100 nM in assay [1]; 60 nM in assay [2]; less than 100 nM in assay [3]; greater than 100 nM in assay [4]; greater than 100 nM in assay [5]; 50 nM in assay [6]. The IC50 in assay [7] and in assay [8] was greater than 100 nM each time.
`COc1cc(N2CCC(N3CCN(C)CC3)CC2)ccc1Nc1ncc(C)c(Nc2cccc3c2N(S(C)(=O)=O)CC3)n1` [Example 7, N2-(2-methoxy-4-(4-(4-methylpiperazin-1-yl)piperidin-1-yl)phenyl)-5-methyl-N4-(1-(methylsulfonyl)indolin-7-yl)pyrimidine-2,4-diamine]: the IC50 in assay [1] is less than 30 nM; in assay [2], less than 1 nM; in assay [3] it was less than 30 nM; in assay [4] it was greater than 100 nM; in assay [5] it was less than 100 nM; in assay [6] it was less than 1 nM. In addition, the IC50 in assay [7] is greater than 100 nM; in assay [8], less than 100 nM.
As for `COc1cc(N2CCC(N3CCN(C)CC3)CC2)ccc1Nc1ncc(C(F)(F)F)c(Nc2cccc3c2N(S(C)(=O)=O)CC3)n1` [Example 9, N2-(2-methoxy-4-(4-(4-methylpiperazin-1-yl)piperidin-1-yl)phenyl)-N4-(1-(methylsulfonyl)indolin-7-yl)-5-(trifluoromethyl)pyrimidine-2,4-diamine], the IC50 in assay [1] was less than 30 nM; in assay [2], less than 1 nM; in assay [3], less than 100 nM; in assay [4], greater than 100 nM; in assay [5], less than 30 nM; in assay [6], less than 1 nM. Moreover, the 50% inhibitory concentration (IC50) is greater than 100 nM in assay [7] and less than 30 nM in assay [8].
As to `COc1cc(N(C)CCN(C)C)ccc1Nc1ncc(Cl)c(Nc2cccc3c2N(S(C)(=O)=O)CC3)n1` [Example 3, 5-chloro-N2-(4-((2-(dimethylamino)ethyl)(methyl)amino)-2-methoxyphenyl)-N4-(1-(methylsulfonyl)indolin-7-yl)pyrimidine-2,4-diamine], the IC50 in assay [1] was less than 100 nM; in assay [3], greater than 100 nM; in assay [5], greater than 100 nM; in assay [7], greater than 100 nM; in assay [8], less than 100 nM.
For `COc1cc(N2CCC(N3CCN(C)CC3)CC2)ccc1Nc1ncc(F)c(Nc2cccc3c2N(S(C)(=O)=O)CC3)n1` [Example 8, 5-fluoro-N2-(2-methoxy-4-(4-(4-methylpiperazin-1-yl)piperidin-1-yl)phenyl)-N4-(1-(methylsulfonyl)indolin-7-yl)pyrimidine-2,4-diamine], the IC50 was less than 100 nM in assay [1]; less than 1 nM in assay [2]; less than 30 nM in assay [3]; greater than 100 nM in assay [4]; less than 100 nM in assay [5]; less than 1 nM in assay [6]. Besides, the IC50 in assay [7] and in assay [8] was greater than 100 nM each time.
With `COc1cc(N2CCC(N(C)C)CC2)ccc1Nc1ncc(Cl)c(Nc2cccc3c2N(S(C)(=O)=O)CC3)n1` [Example 1, 5-chloro-N2-(4-(4-(dimethylamino)piperidin-1-yl)-2-methoxyphenyl)-N4-(1-(methylsulfonyl)indolin-7-yl)pyrimidine-2,4-diamine], the IC50 in assay [1] was less than 30 nM; in assay [2], less than 1 nM; in assay [3] it was less than 30 nM; in assay [4], less than 100 nM; in assay [5] it was less than 30 nM; in assay [6] it was less than 1 nM. For the same compound, the IC50 in assay [7] was less than 100 nM; in assay [8], less than 30 nM.
As to `COc1cc(N2CCC(N(C)C)CC2)ccc1Nc1ncc(Cl)c(Nc2cccc3c2N(S(C)(=O)=O)CCC3)n1` [Example 4, 5-chloro-N2-(4-(4-(dimethylamino)piperidin-1-yl)-2-methoxyphenyl)-N4-(1-(methylsulfonyl)-1,2,3,4-tetrahydroquinolin-8-yl)pyrimidine-2,4-diamine], the IC50 in assay [1] is less than 30 nM; in assay [2], less than 1 nM; in assay [3] it was less than 100 nM; in assay [5] it was less than 100 nM; in assay [6], less than 1 nM; in assay [7], less than 30 nM. The same compound had an IC50 in assay [8] of less than 30 nM.
Consider `COc1cc(N(C)CCN(C)C)ccc1Nc1ncc(Cl)c(Nc2cccc3c2N(S(C)(=O)=O)CCC3)n1` [Example 6, 5-chloro-N2-(4-((2-(dimethylamino)ethyl)(methyl)amino)-2-methoxyphenyl)-N4-(1-(methylsulfonyl)-1,2,3,4-tetrahydroquinolin-8-yl)pyrimidine-2,4-diamine], for which the IC50 was less than 100 nM in assay [1]; 1 nM in assay [2]; greater than 100 nM in assay [3]; less than 100 nM in assay [5]; less than 1 nM in assay [6]; greater than 100 nM in assay [7]. This compound had an IC50 in assay [8] of less than 100 nM.
On to `COC(=O)c1cnc(Nc2ccc(N3CCC(N4CCN(C)CC4)CC3)cc2OC)nc1Nc1cccc2c1N(S(C)(=O)=O)CC2` [Example 11, methyl 2-((2-methoxy-4-(4-(4-methylpiperazin-1-yl)piperidin-1-yl)phenyl)amino)-4-((1-(methylsulfonyl)indolin-7-yl)amino)pyrimidine-5-carboxylate], for which the IC50 was less than 100 nM in assay [1]; 2 nM in assay [2]; less than 100 nM in assay [3]; greater than 100 nM in assay [4]; less than 100 nM in assay [5]; 5 nM in assay [6]. Also, the IC50 in assay [7] and in assay [8] was greater than 100 nM throughout.
